Measured values taken from article PMC7211202 (Investigational New Drugs, 2019).

Assay: Patient incidence of adverse events (CTCAE version 4.0)
Type: in vivo
Conditions: dose escalation
From the text: Each patient was monitored for 21 days for the occurrence of dose-limiting toxicities (DLTs), defined as febrile neutropenia, neutropenic infection, grade 4 neutropenia lasting >7 days, grade ≥ 3 thrombocytopenia lasting >7 days (solid tumors only), grade 3 thrombocytopenia with grade ≥ 2 bleeding (solid tumors only), grade 3 or 4 thrombocytopenia with grade > 1 bleeding (multiple myeloma only), grade 4 thrombocytopenia (solid tumors only), or grade 4 thrombocytopenia lasting >14 days (multiple myeloma only), or as grade ≥ 3 nausea, vomiting, or diarrhea after support; grade 3 fatigue lasting >7 days; any other grade ≥ 3 adverse event (AE); grade ≥ 3 kidney injury (multiple myeloma only), or treatment-related AEs not returning to grade ≤ 1 (solid tumors only) per Common Terminology Criteria for Adverse Events (CTCAE), version 4.0. The MTD was defined as the maximum dose, at which the probability of a DLT was ≤25% in Part 1A and ≤ 33% in Parts 1B and 1C. Treatment continued until disease progression, intolerable toxicity, or withdrawal of consent.
AEs were recorded for all enrolled patients.

CC(C)[C@@H](CS(=O)(=O)C(C)C)N1C(=O)[C@@](C)(CC(=O)O)C[C@H](c2cccc(Cl)c2)[C@H]1c1ccc(Cl)cc1 [AMG 232]
2 (29) n (%): Treatment-related AE: Decrease appetite (120 mg (n = 7)) | Treatment-related AE: Vomiting (120 mg (n = 7))
4 (50) n (%): Patients with any treatment-emergent serious AE (240 mg (n = 8)) | Treatment-related AE: Fatigue (240 mg (n = 8))
5 (63) n (%): Treatment-related AE: Nausea (240 mg (n = 8)) | Treatment-related AE: Vomiting (240 mg (n = 8))
2 (50) n (%): Patients with any treatment-emergent serious AE (300 mg (n = 4)) | Patients with any treatment-related AE, Grade 4 (300 mg (n = 4)) | Patients with any treatment-related serious AE (300 mg (n = 4)) | Treatment-related AE: Fatigue (300 mg (n = 4)) | Treatment-related AE: Neutropenia (300 mg (n = 4))
0 n (%): Treatment-related serious AE: Dehydration (grade 2) (30 mg (n = 3)) | Treatment-related serious AE: Diarrhea (30 mg (n = 3)) | Treatment-related serious AE: Diarrhea, Grade 2 (30 mg (n = 3)) | Treatment-related serious AE: Diarrhea, Grade 3 (30 mg (n = 3)) | Treatment-related serious AE: Febrile neutropenia (grade 3) (30 mg (n = 3)) | Treatment-related serious AE: Hematemesis (grade 3) (30 mg (n = 3)) | Treatment-related serious AE: Nausea (grade 3) (30 mg (n = 3)) | Treatment-related serious AE: Neutropenia (grade 4) (30 mg (n = 3)) | Treatment-related serious AE: Non-cardiac chest pain (grade 3) (30 mg (n = 3)) | Treatment-related serious AE: Thrombocytopenia (grade 4) (30 mg (n = 3)) | Treatment-related serious AE: Vomiting (30 mg (n = 3)) | Treatment-related serious AE: Vomiting, Grade 2 (30 mg (n = 3)) | Treatment-related serious AE: Vomiting, Grade 3 (30 mg (n = 3)) | Patients with any treatment-emergent serious AE (60 mg (n = 4)) | Patients with any treatment-related AE, Grade 3 (60 mg (n = 4)) | Patients with any treatment-related AE, Grade 4 (60 mg (n = 4)) | Patients with any treatment-related AE, Grade 5 (60 mg (n = 4)) | Patients with any treatment-related serious AE (60 mg (n = 4)) | Treatment-related AE: Abdominal pain (60 mg (n = 4)) | Treatment-related AE: Anemia (60 mg (n = 4)) | Treatment-related AE: Asthenia (60 mg (n = 4)) | Treatment-related AE: Dysgeusia (60 mg (n = 4)) | Treatment-related AE: Myalgia (60 mg (n = 4)) | Treatment-related AE: Neutropenia (60 mg (n = 4)) | Treatment-related AE: Thrombocytopenia (60 mg (n = 4)) | Treatment-related AE: Upper abdominal pain (60 mg (n = 4)) | Treatment-related AE: Vomiting (60 mg (n = 4)) | Treatment-related serious AE: Abdominal pain (grade 2) (60 mg (n = 4)) | Treatment-related serious AE: Dehydration (grade 2) (60 mg (n = 4)) | Treatment-related serious AE: Diarrhea (60 mg (n = 4)) | Treatment-related serious AE: Diarrhea, Grade 2 (60 mg (n = 4)) | Treatment-related serious AE: Diarrhea, Grade 3 (60 mg (n = 4)) | Treatment-related serious AE: Febrile neutropenia (grade 3) (60 mg (n = 4)) | Treatment-related serious AE: Hematemesis (grade 3) (60 mg (n = 4)) | Treatment-related serious AE: Nausea (grade 3) (60 mg (n = 4)) | Treatment-related serious AE: Neutropenia (grade 4) (60 mg (n = 4)) | Treatment-related serious AE: Non-cardiac chest pain (grade 3) (60 mg (n = 4)) | Treatment-related serious AE: Thrombocytopenia (grade 4) (60 mg (n = 4)) | Treatment-related serious AE: Vomiting (60 mg (n = 4)) | Treatment-related serious AE: Vomiting, Grade 2 (60 mg (n = 4)) | Treatment-related serious AE: Vomiting, Grade 3 (60 mg (n = 4)) | Patients with any treatment-related AE, Grade 5 (120 mg (n = 7)) | Patients with any treatment-related serious AE (120 mg (n = 7)) | Treatment-related AE: Abdominal pain (120 mg (n = 7)) | Treatment-related AE: Anemia (120 mg (n = 7)) | Treatment-related AE: Asthenia (120 mg (n = 7)) | Treatment-related AE: Dysgeusia (120 mg (n = 7)) | Treatment-related AE: Neutropenia (120 mg (n = 7)) | Treatment-related serious AE: Abdominal pain (grade 2) (120 mg (n = 7)) | Treatment-related serious AE: Dehydration (grade 2) (120 mg (n = 7)) | Treatment-related serious AE: Diarrhea (120 mg (n = 7)) | Treatment-related serious AE: Diarrhea, Grade 2 (120 mg (n = 7)) | Treatment-related serious AE: Diarrhea, Grade 3 (120 mg (n = 7)) | Treatment-related serious AE: Febrile neutropenia (grade 3) (120 mg (n = 7)) | Treatment-related serious AE: Hematemesis (grade 3) (120 mg (n = 7)) | Treatment-related serious AE: Nausea (grade 3) (120 mg (n = 7)) | Treatment-related serious AE: Neutropenia (grade 4) (120 mg (n = 7)) | Treatment-related serious AE: Non-cardiac chest pain (grade 3) (120 mg (n = 7)) | Treatment-related serious AE: Thrombocytopenia (grade 4) (120 mg (n = 7)) | Treatment-related serious AE: Vomiting (120 mg (n = 7)) | Treatment-related serious AE: Vomiting, Grade 2 (120 mg (n = 7)) | Treatment-related serious AE: Vomiting, Grade 3 (120 mg (n = 7)) | Patients with any treatment-related AE, Grade 4 (240 mg (n = 8)) | Patients with any treatment-related AE, Grade 5 (240 mg (n = 8)) | Treatment-related AE: Myalgia (240 mg (n = 8)) | Treatment-related AE: Neutropenia (240 mg (n = 8)) | Treatment-related serious AE: Dehydration (grade 2) (240 mg (n = 8)) | Treatment-related serious AE: Diarrhea, Grade 3 (240 mg (n = 8)) | Treatment-related serious AE: Febrile neutropenia (grade 3) (240 mg (n = 8)) | Treatment-related serious AE: Hematemesis (grade 3) (240 mg (n = 8)) | Treatment-related serious AE: Neutropenia (grade 4) (240 mg (n = 8)) | Treatment-related serious AE: Thrombocytopenia (grade 4) (240 mg (n = 8)) | Treatment-related serious AE: Vomiting, Grade 2 (240 mg (n = 8)) | Patients with any treatment-related AE, Grade 5 (300 mg (n = 4)) | Treatment-related AE: Anemia (300 mg (n = 4)) | Treatment-related AE: Myalgia (300 mg (n = 4))
8 (100) n (%): Patients with any treatment-emergent AE (240 mg (n = 8)) | Patients with any treatment-related AE (240 mg (n = 8))
1 (25) n (%): Treatment-related AE: Decrease appetite (60 mg (n = 4)) | Treatment-related AE: Diarrhea (60 mg (n = 4)) | Treatment-related AE: Fatigue (60 mg (n = 4)) | Treatment-related AE: Abdominal pain (300 mg (n = 4)) | Treatment-related AE: Asthenia (300 mg (n = 4)) | Treatment-related AE: Decrease appetite (300 mg (n = 4)) | Treatment-related AE: Dysgeusia (300 mg (n = 4)) | Treatment-related AE: Nausea (300 mg (n = 4))
3 (43) n (%): Patients with any treatment-emergent serious AE (120 mg (n = 7)) | Treatment-related AE: Diarrhea (120 mg (n = 7)) | Treatment-related AE: Fatigue (120 mg (n = 7)) | Treatment-related AE: Nausea (120 mg (n = 7))
2 (25) n (%): Patients with any treatment-related serious AE (240 mg (n = 8)) | Treatment-related AE: Abdominal pain (240 mg (n = 8)) | Treatment-related AE: Decrease appetite (240 mg (n = 8)) | Treatment-related AE: Dysgeusia (240 mg (n = 8))
1 (13) n (%): Treatment-related AE: Anemia (240 mg (n = 8)) | Treatment-related AE: Asthenia (240 mg (n = 8)) | Treatment-related AE: Thrombocytopenia (240 mg (n = 8)) | Treatment-related AE: Upper abdominal pain (240 mg (n = 8)) | Treatment-related serious AE: Abdominal pain (grade 2) (240 mg (n = 8)) | Treatment-related serious AE: Diarrhea (240 mg (n = 8)) | Treatment-related serious AE: Diarrhea, Grade 2 (240 mg (n = 8)) | Treatment-related serious AE: Nausea (grade 3) (240 mg (n = 8)) | Treatment-related serious AE: Non-cardiac chest pain (grade 3) (240 mg (n = 8)) | Treatment-related serious AE: Vomiting (240 mg (n = 8)) | Treatment-related serious AE: Vomiting, Grade 3 (240 mg (n = 8))
3 (38) n (%): Patients with any treatment-related AE, Grade 3 (240 mg (n = 8))
7 (100) n (%): Patients with any treatment-emergent AE (120 mg (n = 7)) | Patients with any treatment-related AE (120 mg (n = 7))
4 (100) n (%): Patients with any treatment-emergent AE (60 mg (n = 4)) | Patients with any treatment-emergent AE (300 mg (n = 4)) | Patients with any treatment-related AE (300 mg (n = 4)) | Treatment-related AE: Diarrhea (300 mg (n = 4))
1 (14) n (%): Patients with any treatment-related AE, Grade 3 (120 mg (n = 7)) | Patients with any treatment-related AE, Grade 4 (120 mg (n = 7)) | Treatment-related AE: Myalgia (120 mg (n = 7)) | Treatment-related AE: Thrombocytopenia (120 mg (n = 7)) | Treatment-related AE: Upper abdominal pain (120 mg (n = 7))
6 (75) n (%): Treatment-related AE: Diarrhea (240 mg (n = 8))
3 (75) n (%): Patients with any treatment-related AE (60 mg (n = 4)) | Treatment-related AE: Nausea (60 mg (n = 4)) | Patients with any treatment-related AE, Grade 3 (300 mg (n = 4)) | Treatment-related AE: Thrombocytopenia (300 mg (n = 4))
